Laboratory results as given in patent US7375058B2, “Herbicidal mixtures based on 3-phenyluracils” (priority 2002, dated 2008).
Counter-ions that a name gives are not always drawn.

What was measured:
BIDPI = test: Greenhouse post-emergence herbicidal action against BIDPI; type: in vivo, Bidens pilosa
Text: (§1) For the post-emergence treatment, the test plants were first grown to a height of 3 to 20 cm, depending on the plant habit, and only then treated. Here, the herbicidal compositions were suspended or emulsified in water as distribution medium and sprayed using finely distributing nozzles
(§2) The respective components A and B and/or C were formulated as 10% by weight strength emulsion concentrate and introduced to the spray liquor with the amount of solvent system used for applying the active compound. In the examples, the solvent used was water.
(§3) The test period extended over 21 days. During this time, the plants were tended, and their response to the treatments with active compound was evaluated.
(§4) The evaluation for the damage caused by the chemical compositions was carried out using a scale from 0 to 100%, compared to the untreated control plants. Here, 0 means no damage and 100 means complete destruction of the plants.
(§5) In the examples below, the value E which is to be expected if the activity of the individual compounds is just additive was calculated using the method of S. R. Colby (1967) “Calculating synergistic and antagonistic responses of herbicide combinations”, Weeds 15, p. 22 ff. E=X+Y−([…]) where • X=effect in percent using active compound A at an application rate a; • Y=effect in percent using active compound B at an application rate b; • E=expected effect (in %) of A+B at application rates a+b.
(§6) If the observed effect is higher than the value E calculated according to Colby, a synergistic effect is present.

AVEFA = test: Greenhouse post-emergence herbicidal action against AVEFA; type: in vivo, Avena fatua
Text: as §1, §2, §3, §4, §5, §6

POLPE = test: Greenhouse post-emergence herbicidal action against POLPE; type: in vivo, Polygonum persicaria; conditions: 21 days
Text: as §1, §2, §3, §4, §5, §6

ABUTH = test: Greenhouse post-emergence herbicidal action against ABUTH; type: in vivo, Abutilon theophrasti; conditions: 21 days
Text: as §1, §2, §3, §4, §5, §6

GALAP = test: Greenhouse post-emergence herbicidal action against GALAP; type: in vivo, Galium aparine; conditions: 21 days
Text: as §1, §2, §3, §4, §5, §6

AMARE = test: Greenhouse post-emergence herbicidal action against AMARE; type: in vivo, Amaranthus retroflexus
Text: as §1, §2, §3, §4, §5, §6

BRAPL = test: Greenhouse post-emergence herbicidal action against BRAPL; type: in vivo, Brachiaria plantaginea; conditions: 21 days
Text: as §1, §2, §3, §4, §5, §6

ECHCG = test: Greenhouse post-emergence herbicidal action against ECHCG; type: in vivo, Echinochloa crus-galli; conditions: 21 days
Text: as §1, §2, §3, §4, §5, §6

COMBE = test: Greenhouse post-emergence herbicidal action against COMBE; type: in vivo, Commelina benghalensis; conditions: 21 days
Text: as §1, §2, §3, §4, §5, §6

POAPR = test: Pre-emergence herbicidal action against POAPR; type: in vivo, Poa pratensis; conditions: 21 days
Procedure: as §4
(§7) In the examples below, the mixtures were applied by the pre-emergence method. To this end, the test plants were initially sown and covered with a thin layer of soil. Afterward (i.e. prior to the germination of the test plants), the mixtures according to the invention were sprayed onto the soil as an aqueous spray liquor at the stated application rate. As in the post-emergence method described above, the test period was 21 days. The damage was then evaluated as described above using a scale from 0 to 100% damage in comparison to untreated control plants (0% damage).
(§8) A safener action is present if the damage to the crop plant caused by using a mixture according to the invention which contains a safener C) is less than the damage caused when active compound A or active compounds A and B are used without safener.

TRFPR = test: Pre-emergence herbicidal action against TRFPR; type: in vivo, Trifolium pratense; conditions: 21 days
Procedure: as §4, §7, §8

TRZAW = test: Pre-emergence safener action (crop damage) in TRZAW; type: in vivo, Triticum aestivum (Winter wheat); conditions: 21 days
Procedure: as §4, §7, §8

[1] = I.1 0.49 g/ha and/or b14.1 7.81 g/ha
[2] = I.1 0.98 g/ha and/or b14.1 15.63 g/ha
[3] = I.1 1.95 g/ha and/or b10.1 125 g/ha
[4] = I.1 3.91 g/ha and/or b10.1 250 g/ha
[5] = application rate g/ha: I.7 1.95, b13.1 500
[6] = application rate g/ha: I.7 3.91, b13.1 1000
[7] = application rate g/ha: I.7 1.95, b3.2 62.5
[8] = application rate g/ha: I.7 3.91, b3.2 125
[9] = I.7 200 g/ha and/or c.1 200 g/ha
[10] = I.7 400 g/ha and/or c.1 400 g/ha

CN(C)S(=O)(=O)NC(=O)c1cc(-n2c(=O)cc(C(F)(F)F)n(C)c2=O)c(F)cc1Cl [I.1]
Herbicidal action against BIDPI found (BIDPI; [1]): 20% | Herbicidal action against BIDPI found (BIDPI; [2]): 30% | Herbicidal action against BIDPI found (BIDPI; [3]): 40% | Herbicidal action against BIDPI found (BIDPI; [4]): 50% | Herbicidal action against AVEFA found (AVEFA; 21 days, application rate g/ha: I.1 0.98, b9.1 125): 5% | Herbicidal action against AVEFA found (AVEFA; 21 days, application rate g/ha: I.1 1.95, b9.1 250): 10% | Herbicidal action against AVEFA found (AVEFA; [3]): 10% | Herbicidal action against AVEFA found (AVEFA; [4]): 10% | Herbicidal action against POLPE found (POLPE; application rate g/ha: I.1 0.49, b4.1 0.98): 10% | Herbicidal action against POLPE found (POLPE; application rate g/ha: I.1 0.98, b4.1 1.95): 25% | Herbicidal action against ABUTH found (ABUTH; application rate g/ha: I.1 1.95, b1.2 31.25): 20% | Herbicidal action against ABUTH found (ABUTH; application rate g/ha: I.1 3.91, b1.2 62.5): 30% | Herbicidal action against GALAP found (GALAP; application rate g/ha: I.1 1.95, b1.1 62.5): 20% | Herbicidal action against GALAP found (GALAP; application rate g/ha: I.1 1.95, b1.3 + c.1 62.5 + 67.5): 50% | Herbicidal action against GALAP found (GALAP; application rate g/ha: I.1 3.91, b1.1 125): 20% | Herbicidal action against GALAP found (GALAP; application rate g/ha: I.1 3.91, b1.3 + c.1 125 + 135.9): 60% | Herbicidal action against AMARE found (AMARE; [1]): 60% | Herbicidal action against AMARE found (AMARE; [2]): 60%

CC(C)N(C)S(=O)(=O)NC(=O)c1cc(-n2c(=O)cc(C(F)(F)F)n(C)c2=O)c(F)cc1Cl [I.7]
Herbicidal action against AVEFA found (AVEFA; 21 days, application rate g/ha: I.7 1.95, b3.1 62.5): 10% | Herbicidal action against AVEFA found (AVEFA; 21 days, application rate g/ha: I.7 1.95, b6.1 125): 10% | Herbicidal action against AVEFA found (AVEFA; 21 days, application rate g/ha: I.7 1.95, b7.1 250): 10% | Herbicidal action against AVEFA found (AVEFA; 21 days, application rate g/ha: I.7 3.91, b3.1 125): 15% | Herbicidal action against AVEFA found (AVEFA; 21 days, application rate g/ha: I.7 3.91, b6.1 250): 15% | Herbicidal action against AVEFA found (AVEFA; 21 days, application rate g/ha: I.7 3.91, b7.1 500): 15% | Herbicidal action against POLPE found (POLPE; application rate g/ha: I.7 1.95, b3.1 62.5): 0% | Herbicidal action against POLPE found (POLPE; application rate g/ha: I.7 1.95, b7.1 250): 0% | Herbicidal action against POLPE found (POLPE; [5]): 0% | Herbicidal action against POLPE found (POLPE; application rate g/ha: I.7 3.91, b3.1 125): 25% | Herbicidal action against POLPE found (POLPE; application rate g/ha: I.7 3.91, b7.1 500): 25% | Herbicidal action against POLPE found (POLPE; [6]): 25% | Herbicidal action against BRAPL found (BRAPL; [7]): 40% | Herbicidal action against BRAPL found (BRAPL; [8]): 60% | Herbicidal action against ECHCG found (ECHCG; [7]): 0% | Herbicidal action against ECHCG found (ECHCG; [8]): 30% | Herbicidal action against ABUTH found (ABUTH; application rate g/ha: I.7 0.98, b3.3 31.25): 0% | Herbicidal action against ABUTH found (ABUTH; application rate g/ha: I.7 0.98, b3.4 31.25): 0% | Herbicidal action against ABUTH found (ABUTH; application rate g/ha: I.7 1.95, b3.3 62.5): 30% | Herbicidal action against ABUTH found (ABUTH; application rate g/ha: I.7 1.95, b3.4 62.5): 30% | Herbicidal action against COMBE found (COMBE; [5]): 0% | Herbicidal action against COMBE found (COMBE; [6]): 0% | Herbicidal action against POAPR (POAPR; [9]): 98% | Herbicidal action against POAPR (POAPR; [10]): 98% | Herbicidal action against TRFPR (TRFPR; [9]): 100% | Herbicidal action against TRFPR (TRFPR; [10]): 100% | Damage to crop plant TRZAW (TRZAW; [9]): 10% | Damage to crop plant TRZAW (TRZAW; [10]): 35%

C/C(=N\NC(=O)Nc1cc(F)cc(F)c1)c1ncccc1C(=O)O [b14.1, diflufenzopyr sodium salt, reference compound]
Herbicidal action against BIDPI found (BIDPI; [1]): 20% | Herbicidal action against BIDPI found (BIDPI; [2]): 30% | Herbicidal action against AMARE found (AMARE; [1]): 0% | Herbicidal action against AMARE found (AMARE; [2]): 0%
